Assay results published in patent US12264163B2, “Compounds and methods for treating fibrotic pathologies” (Mayo Foundation for Medical Education and Research, priority 2019, dated 2025).

How the values were obtained:
YAP/TAZ = YAP/TAZ nuclear localization in IPF patient-derived lung fibroblasts treated with dopaminergic agonists; format: cell-based, human; settings: 10 μM, 2 hours
Outline: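 Fibroblasts from IPF patients (N=4 patient samples) were exposed to dopaminergic agonists at 10 μM for 2 h before fixation. Cells were immunostained for YAP/TAZ with DAPI counterstain and imaged at 4×. Percent nuclear YAP/TAZ localization was quantified by automated image analysis.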

[1] = system: IPF patient derived fibroblasts; experiment: Traction force microscopy of IPF patient-derived fibroblasts; format: cell-based, human; settings: IPF fibroblasts on 6.4 kPa matrices
Method: Traction Force Microscopy: Traction analysis was conducted as previously described. […] IPF patient derived fibroblasts were plated on the gels overnight and treated as indicated before traction force measurements. Images of gel surface-conjugated fluorescent beads were acquired for each cell before and after trypsinization using a Nikon ECLIPSE Ti microscope at ×10 magnification. Traction forces were estimated by measuring bead displacement fields and computing corresponding traction fields using TractionsForAll (freely distributed program that calculates 2-D tractions exerted by an adherent cell on its substrate).

[2] = system: bleomycin-induced pulmonary fibrosis; experiment: Bleomycin mouse model of pulmonary fibrosis; format: in vivo; settings: bleomycin mice
Method: Bleomycin Mouse Study: In the initial in vivo siRNA study (FIGS. 22 and 23A-23C), adult male age-matched C57BL/6N mice at 6-8 weeks of age were purchased from the National Cancer Institute (NCI)-Frederick Mouse Repository (Frederick, MD, USA). All experiments were performed in accordance with National Institute of Health guidelines and protocols approved by the Massachusetts General Hospital Subcommittee on Research Animal Care, and maintained all mice in a specific pathogen-free (SPF) environment certified by the American Association for Accreditation of Laboratory Animal Care (AAALAC). 6-8 weeks old mice were anesthetized with ketamine and xylazine before exposure of the trachea. Lung fibrosis was induced by intratracheal injection of bleomycin (50 μl at 1.2 U/kg) or phosphate buffered saline (PBS; as control) on day 0. After 14 days Small interfering RNA (siRNA) duplexes targeting mouse Yap (L-046247-01-0005) or Taz (L-058248-01-0005) mRNA (Dharmacon) or nontargeting control siRNA were administered in vivo by intratracheal instillation at a single dose of 25 μg (each siRNA) per mouse. On day 21 Mice were sacrificed and lungs harvested for collagen determination and biochemical analyses. To obtain BAL samples for total protein concentration determination, lungs were lavaged with six 0.5-mL aliquots of PBS. BAL samples were centrifuged at 3,000 g for 20 min at 4° C. and transferred the supernatants to siliconized low-binding Eppendorf tubes (PGC Scientifics) for subsequent analysis. Total protein concentration of the BAL fluid was determined by BCA Protein Assay Kit (Pierce). In the dihydrexidine treatment studies (FIG. 17-21), 8 week old female C57/BL6 mice were purchased from Charles River Laboratories. Mouse lung fibrosis was induced with bleomycin (BLEO; Fresenius Kabi) delivered intratracheally (3 U/kg) to the lungs using MicroSprayer® Aerosolizer (Penn-Century). The Sham mice received sterile 0.9% saline instead using identical methods. Mice were weighed every 24 hrs, and both groups were then randomized at day 10 into DHX and Control treatment groups, matching for the degree of weight change. DHX (5 mg/kg) was administered everyday intranasally (i.n.) dissolved in surfactant (infasurf) which has previously shown to aid in spreading to pulmonary aveoli for 14 days. The control groups of mice received the equivalent vehicle dose of surfactant. Following the final DHX treatment, mice were sacrificed and the right lungs were inflated with 4% paraformaldehyde (PFA) and further incubated in 4% PFA for 24 hours prior processing for paraffin embedding. The left lobe of the lung was snap frozen in liquid nitrogen for RNA isolation and hydroxyproline assay. Experimental procedures were approved by the Mayo Clinic Institutional Animal Care and Use Committee and the animals were handled in accordance with their guidelines.
Histological Scoring: Five μm thick sections were cut from Paraffin embedded lung tissues, and the sections were stained either with hematoxylin and eosin (H&E) or with Masson's Trichrome stain kit (Abcam). All H&E-stained slides and trichrome-stained slides were reviewed in a blinded fashion by a thoracic pathologist. The severity of interstitial and peribronchiolar lung immature and mature fibrosis was estimated on a numerical scale according to Ashcroft et al. For scoring purposes, all H&E stained slides were systematically scanned at 100× magnification and successive 100× fields were scored. Scoring was based on the following scale: 0 (no fibrosis), 1 (minimal interstitial and/or peribronchiolar thickening due to fibrosis), 3 (moderate thickening without obvious architectural distortion), 5 (increased fibrosis with formation of fibrous bands and/or small masses), 7 (severe architectural distortion with large areas of fibrosis and areas of honeycomb changes), and 8 (total fibrous obliteration of the field). The predominant score for each field was recorded. The mean of all scores was calculated for each case. […]

Oc1cc2c(cc1O)[C@H]1c3ccccc3CN[C@@H]1CC2 (racemic) [Dihydrexidine]
Nuclear localization (% of total cells) (YAP/TAZ; IPF-1 patient fibroblasts): 13.22 % of total cells
Nuclear localization (% of total cells) (YAP/TAZ; IPF-2 patient fibroblasts): 21.79 % of total cells
Nuclear localization (% of total cells) (YAP/TAZ; IPF-3 patient fibroblasts): 27.63 % of total cells
Nuclear localization (% of total cells) (YAP/TAZ; IPF-4 patient fibroblasts): 21.08 % of total cells
contractile forces (traction force microscopy) [1]: significantly and dose-dependently reduced the contractile forces
lung remodeling by histology (Ashcroft, blinded pathologist) ([2]; DHX 5 mg/kg i.n. Day 10-24): nearly completely protected from lung remodeling
lung transcript levels of Acta2, Ctgf, Fn1, Col1a1, Col1a2, Yap and Taz ([2]; DHX 5 mg/kg i.n. Day 10-24): significantly attenuated
staining for YAP and TAZ in the lungs ([2]; DHX 5 mg/kg i.n. Day 10-24): attenuated
total collagen in the lungs (hydroxyproline) ([2]; DHX 5 mg/kg i.n. Day 10-24): nearly identical to sham treated mice
weight change ([2]; DHX 5 mg/kg once daily i.n. from Day 10, vs Bleo control): lost significantly less weight
expression of YAP/TAZ target genes in flow-sorted lung cells ([2]; two doses of DHX on day 10, lungs collected day 11): selectively blocks expression of YAP/TAZ target genes in lung fibroblasts
